Data published in ChEMBL document CHEMBL1143209, “Ohioensins F and G: protein tyrosine phosphatase 1B inhibitory benzonaphthoxanthenones from the Antarctic moss Polytrichastrum alpinum” (Bioorg Med Chem Lett, 2008).

Columns and labels:
[1] = target: T1, Tyrosine-protein phosphatase non-receptor type 1 (Homo sapiens, UniProt P18031); experiment: Inhibition of human recombinant PTP1B
T1 sequence (P18031 whole entry): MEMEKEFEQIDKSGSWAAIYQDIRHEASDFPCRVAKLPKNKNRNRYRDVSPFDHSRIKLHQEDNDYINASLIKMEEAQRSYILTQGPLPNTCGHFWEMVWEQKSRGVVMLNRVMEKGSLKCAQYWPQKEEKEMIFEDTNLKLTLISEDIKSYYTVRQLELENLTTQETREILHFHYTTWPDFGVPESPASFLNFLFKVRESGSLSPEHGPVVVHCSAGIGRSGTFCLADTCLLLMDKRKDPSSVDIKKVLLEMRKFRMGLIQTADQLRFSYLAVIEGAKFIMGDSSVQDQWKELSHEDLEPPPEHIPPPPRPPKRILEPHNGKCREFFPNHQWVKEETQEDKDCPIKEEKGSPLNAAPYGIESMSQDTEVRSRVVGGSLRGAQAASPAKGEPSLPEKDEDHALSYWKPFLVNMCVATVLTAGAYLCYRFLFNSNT

[2] = target: T1, Tyrosine-protein phosphatase non-receptor type 1; experiment: Inhibition of human recombinant PTP1B by Lineweaver-Burke plot

IC50 [1] [µM] | Ki [2] [µM] | Structure (SMILES)
3.5 | 1.5 | O=C1C[C@]2(O)c3ccccc3O[C@H]3c4cc(O)ccc4-c4c(O)cc(O)c1c4[C@@H]32 [OHIOENSIN F]
7.6 |  | COc1cc(O)c2c3c1-c1c(O)cccc1[C@@H]1Oc4ccccc4[C@@H](CC2=O)[C@@H]31 [OHIOENSIN C]
4.3 |  | O=C1C[C@@H]2c3ccccc3O[C@H]3c4cc(O)ccc4-c4c(O)cc(O)c1c4[C@H]23 [OHIOENSIN A]
5.6 |  | O=C1c2c(O)cc(O)c3c2[C@@H]2[C@@H](c4ccccc4O[C@H]2c2cccc(O)c2-3)[C@H]1O [OHIOENSIN G]
